The target in test [1] is T1, Kappa-type opioid receptor (Homo sapiens, UniProt P41145). In kind it is functional.
For test [2], the target named is T2, Type-1 angiotensin II receptor (Homo sapiens, UniProt P30556).
T2 sequence (P30556 whole entry): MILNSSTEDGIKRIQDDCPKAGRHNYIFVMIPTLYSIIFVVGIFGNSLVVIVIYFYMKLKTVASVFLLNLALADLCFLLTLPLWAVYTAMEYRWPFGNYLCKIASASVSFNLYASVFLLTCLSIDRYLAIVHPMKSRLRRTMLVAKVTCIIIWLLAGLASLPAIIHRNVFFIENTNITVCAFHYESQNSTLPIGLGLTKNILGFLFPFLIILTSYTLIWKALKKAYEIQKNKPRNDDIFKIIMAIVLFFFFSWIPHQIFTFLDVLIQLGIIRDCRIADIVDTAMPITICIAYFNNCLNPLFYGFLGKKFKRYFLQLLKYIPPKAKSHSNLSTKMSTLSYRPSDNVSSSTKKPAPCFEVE
The test can be described thus: AT1 receptor antagonists, dose response, selectivity assay for APJ receptor antagonist project, cell-based, uHTS hits (AID 463214).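 Note: antagonist potency against angiotensin II stimulated AT1 response.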 In kind it is functional.

Test [3] has as its target T1, Kappa-type opioid receptor. The format is functional. The source holds these as a separate data set.
Test [4] can be described thus: cytotoxicity in HEK-293T NF-kB-Luc cells, dose response, cytotoxicity control for B/T-cell NF-kB inhibitor project, cell-based, uHTS hits (AID 489019).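 Note: IC50 reflects cytotoxicity as loss of cell viability.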 In kind it is functional.
The target of test [5] is T3, RNA-binding protein pos-1 (Caenorhabditis elegans, UniProt G5EF15).
T3 sequence (G5EF15 whole entry): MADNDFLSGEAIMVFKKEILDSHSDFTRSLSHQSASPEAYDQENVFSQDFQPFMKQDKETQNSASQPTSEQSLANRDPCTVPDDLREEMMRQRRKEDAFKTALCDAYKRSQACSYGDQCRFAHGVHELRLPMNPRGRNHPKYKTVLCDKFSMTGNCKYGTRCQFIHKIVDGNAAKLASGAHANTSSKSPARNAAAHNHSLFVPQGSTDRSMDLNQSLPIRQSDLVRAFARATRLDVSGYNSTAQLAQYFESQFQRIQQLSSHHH
Briefly: inhibitors of POS-1/mex-3 RNA binding, dose response, biochemical, fluorescence polarization (AID 1964).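 Note: purified POS-1 fused to maltose binding protein made in E. coli; potency of compounds blocking POS-1 binding to fluorescent RNA.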

The test system of test [6] is HeLa. The test can be described thus: HeLa cell cytotoxicity, dose response, cytotoxicity control, 24 h, cherry-picked samples (AID 504726).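 Note: potency for cytotoxicity as loss of luminescence signal.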 In kind it is functional, cell-based. The conditions noted are these: Homo sapiens.
For test [7], the target named is Eukaryotic translation initiation factor 4E (Mus musculus, UniProt P63073). Briefly: eIF4E–eIF4G protein interaction inhibitors, dose response, biochemical, TR-FRET (AID 855).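 Note: potency for disrupting eIF4E binding to eIF4GI seen as loss of FRET.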 The format is functional. (In general: TR-FRET usually uses a lanthanide donor and a delayed reading to cut background.)
Chain of Eukaryotic translation initiation factor 4E (P63073 whole entry): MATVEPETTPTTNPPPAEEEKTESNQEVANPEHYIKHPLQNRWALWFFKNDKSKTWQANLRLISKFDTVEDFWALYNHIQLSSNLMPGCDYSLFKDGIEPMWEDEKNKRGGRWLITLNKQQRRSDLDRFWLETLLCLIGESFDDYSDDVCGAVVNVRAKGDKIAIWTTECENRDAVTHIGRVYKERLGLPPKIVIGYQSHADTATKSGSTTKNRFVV
The target in test [8] is Troponin, cardiac muscle (Homo sapiens, UniProt P19429+P45379+P63316). Briefly: inhibitors of cardiac thin filament calcium sensitivity, dose response, biochemical, fluorescence, cardiac regulated thin filaments, triplicate IC50 (AID 504742). In kind it is protein-complex assay.
The target of test [9] is Induced myeloid leukemia cell differentiation protein Mcl-1 (Homo sapiens, UniProt Q07820). The format is functional.
Chain of Induced myeloid leukemia cell differentiation protein Mcl-1 (Q07820 whole entry): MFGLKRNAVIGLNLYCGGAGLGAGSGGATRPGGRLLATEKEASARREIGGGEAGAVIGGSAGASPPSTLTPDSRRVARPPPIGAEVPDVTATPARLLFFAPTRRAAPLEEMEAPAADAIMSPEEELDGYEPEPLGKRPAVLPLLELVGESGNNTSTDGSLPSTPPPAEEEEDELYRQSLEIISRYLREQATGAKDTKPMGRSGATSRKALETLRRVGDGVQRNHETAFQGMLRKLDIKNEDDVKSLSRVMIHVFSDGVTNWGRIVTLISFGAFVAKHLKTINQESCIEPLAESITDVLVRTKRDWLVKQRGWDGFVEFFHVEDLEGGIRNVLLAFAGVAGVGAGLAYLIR
The target in test [10] is Dual specificity protein phosphatase 3 (Homo sapiens, UniProt P51452). Briefly: VHR1 phosphatase inhibitors, primary screen, biochemical, absorbance, uHTS (AID 1654).
Chain of Dual specificity protein phosphatase 3 (P51452 whole entry): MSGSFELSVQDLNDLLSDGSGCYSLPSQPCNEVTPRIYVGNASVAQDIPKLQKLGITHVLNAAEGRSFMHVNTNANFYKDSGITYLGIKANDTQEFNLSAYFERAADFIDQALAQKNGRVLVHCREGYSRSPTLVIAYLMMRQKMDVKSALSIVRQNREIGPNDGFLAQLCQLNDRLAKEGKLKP

Molecules are shown by their SMILES. The source made the active and inactive calls.

We go through three molecules from ChEMBL document CHEMBL1201862, “PubChem BioAssay data set” (2004).

T1 sequence (P41145 whole entry): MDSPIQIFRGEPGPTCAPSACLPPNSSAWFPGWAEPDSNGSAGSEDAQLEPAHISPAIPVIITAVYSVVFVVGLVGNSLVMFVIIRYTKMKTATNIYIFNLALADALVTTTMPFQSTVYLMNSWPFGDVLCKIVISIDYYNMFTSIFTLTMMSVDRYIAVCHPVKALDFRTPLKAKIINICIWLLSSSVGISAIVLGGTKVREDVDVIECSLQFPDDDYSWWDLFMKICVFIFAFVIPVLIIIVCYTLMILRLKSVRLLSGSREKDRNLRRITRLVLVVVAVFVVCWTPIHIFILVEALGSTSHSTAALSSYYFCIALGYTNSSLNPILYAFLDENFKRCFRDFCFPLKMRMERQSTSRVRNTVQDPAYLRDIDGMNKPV

Broadly, the IC50 is the concentration that gives 50% inhibition. For `C=C1C(=O)O[C@@H]2C[C@@H](C)[C@@H]3C=CC(=O)[C@@]3(C)[C@@H](OC(=O)CC(=O)O[C@H]3[C@@H]4C(=C)C(=O)O[C@@H]4C[C@@H](C)[C@@H]4C=CC(=O)[C@]43C)[C@H]12`, the IC50 was 13.4 µM (active) in test [1], 6.05 µM (active) in test [2], 9.14 µM in test [3] and > 80 µM (inactive) in test [4].
Broadly, the EC50 is the concentration that produces a half-maximal response. For orientation: AC50 means the midpoint of the concentration-response curve, whichever way the signal moves. With `CCN(CC)CCN1C(=O)c2cccc3cc(N)cc(c23)C1=O`, the EC50 in [5] is 6.62 µM (active). In [6], the AC50 was 109 µM (active).
As to `O=C(O)c1cccc(-n2cccc2/C=C2/NC(=O)N(c3ccc(Cl)cc3)C2=O)c1`, the concentration for half-maximal inhibition (IC50) in test [7] is 4.43 µM (active); in [8] it was 3.45 µM (active); in test [9], 2.69 µM (active); in test [10] it was < 0.98 µM (inactive).
